Among the test systems are CCRF-CEM leukemia; SNB-19 CNS; HCC-2998 colon; HCT-116 colon; NCI-H23 lung; UACC-62 melanoma; UO-31 renal; CAKI-1 renal; BT-549 breast; RPMI-8226 leukemia.
What all share (assay): DTP human tumour cell line panel, 48 h

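Cells were grown in 96-well plates and exposed to each compound for 48 hours at five concentrations; endpoints were interpolated linearly between bracketing concentrations, or set to the highest concentration if not reached. Here, GI50 denotes the concentration required for 50% inhibition of growth. The concentration for full growth arrest is given as TGI.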

Usually GI50 stands for the concentration giving 50% growth inhibition. In general, TGI refers to the concentration at which net growth stops. In the case of `CC/C(=C/c1ccc(OC)cc1)[N+](=O)[O-]`, the GI50 in the assay on CCRF-CEM leukemia was 1.96 µM; in the assay with SNB-19 CNS, 2.77 µM; in the assay on HCC-2998 colon, 1.89 µM; in the assay on HCT-116 colon, 1.61 µM; in the assay on NCI-H23 lung, 2.15 µM; with UACC-62 melanoma it was 2.04 µM. For the same compound, the GI50 was 1.42 µM in the assay on UO-31 renal, 1.67 µM in the assay on CAKI-1 renal, 2.42 µM with BT-549 breast and 1.76 µM with RPMI-8226 leukemia. For the same compound, the TGI in the assay on CCRF-CEM leukemia came out at 5.72 µM; with SNB-19 CNS, 7.93 µM; with HCC-2998 colon, 3.42 µM; in the assay on HCT-116 colon it was 3.1 µM; in the assay on NCI-H23 lung, 5.74 µM; in the assay with UACC-62 melanoma, 4.67 µM. Besides, the TGI with UO-31 renal was determined as 3.04 µM; with CAKI-1 renal, 3.33 µM; in the assay on BT-549 breast, 6.42 µM; in the assay with RPMI-8226 leukemia, 5.31 µM.

`COc1cc(/C=N\Nc2ccccc2)ccc1OC(=O)c1ccccc1`: the GI50 is 2.44 µM in the assay with CCRF-CEM leukemia; 19.8 µM in the assay with SNB-19 CNS; 3.83 µM in the assay with HCC-2998 colon; 5.76 µM with HCT-116 colon; 15.8 µM in the assay on NCI-H23 lung; 0.311 µM in the assay on UACC-62 melanoma. Further, the GI50 was 0.792 µM in the assay on UO-31 renal, 2.27 µM in the assay on CAKI-1 renal, 8.34 µM with BT-549 breast and 3.79 µM in the assay with RPMI-8226 leukemia. Further, the TGI is above 100 µM with CCRF-CEM leukemia; above 100 µM with SNB-19 CNS; 17.1 µM in the assay with HCC-2998 colon; above 100 µM in the assay on HCT-116 colon; above 100 µM with NCI-H23 lung; 4.47 µM in the assay with UACC-62 melanoma. The TGI in the assay with UO-31 renal was above 40.2 µM; in the assay with CAKI-1 renal it was 33.7 µM; with BT-549 breast it was 62.3 µM; in the assay with RPMI-8226 leukemia it was above 55.9 µM.

Take `O=C(Nc1c[nH]c(=O)[nH]c1=O)Oc1ccccc1`: the TGI in the assay with CCRF-CEM leukemia, in the assay with SNB-19 CNS, in the assay with HCC-2998 colon, in the assay on HCT-116 colon, in the assay on NCI-H23 lung and with UACC-62 melanoma was above 100 µM throughout. Moreover, the TGI in the assay with UO-31 renal, with CAKI-1 renal, in the assay on BT-549 breast and in the assay with RPMI-8226 leukemia was above 100 µM each time.

Regarding `Oc1ccccc1/C=N\NC(=S)Nc1ccc(F)cc1`, the GI50 in the assay with CCRF-CEM leukemia was 0.396 µM; in the assay on SNB-19 CNS, 2.32 µM; with HCC-2998 colon it was 3.28 µM; in the assay with HCT-116 colon, 0.403 µM; in the assay on NCI-H23 lung it was 2.37 µM; with UACC-62 melanoma, 0.95 µM. In addition, the GI50 with UO-31 renal is 0.472 µM; in the assay with CAKI-1 renal, 1.57 µM; in the assay with BT-549 breast it was 2.35 µM; in the assay with RPMI-8226 leukemia it was 1.34 µM. The TGI in the assay with SNB-19 CNS is above 100 µM; in the assay on HCC-2998 colon, 28.5 µM; with HCT-116 colon, above 100 µM; with NCI-H23 lung, above 100 µM; in the assay with UACC-62 melanoma, 4 µM; in the assay on UO-31 renal it was 4.97 µM. Besides, the TGI was above 24.3 µM with CAKI-1 renal and above 89.9 µM in the assay with BT-549 breast.

Take `COc1oc(C2C/C(=C/C(C)=C/C(C)=C/C(C)=C/c3ccc([N+](=O)[O-])cc3)CO2)c(C)c(=O)c1C` (configuration not stated): the TGI with CCRF-CEM leukemia is 23.5 µM; in the assay on SNB-19 CNS, 73.7 µM; with HCC-2998 colon it was above 100 µM; in the assay on HCT-116 colon, 18.2 µM; with NCI-H23 lung, 31.4 µM; with UACC-62 melanoma it was above 54.8 µM. Further, the TGI in the assay with UO-31 renal came to 27.5 µM; with CAKI-1 renal, 30.9 µM; with BT-549 breast, 17.4 µM; in the assay on RPMI-8226 leukemia, 20.9 µM.

For the compound `COc1cccc(/C=C\C(=O)c2ccccc2)c1`, the GI50 in the assay with CCRF-CEM leukemia was 6.79 µM; with SNB-19 CNS, 7.68 µM; in the assay with HCC-2998 colon, 8.72 µM; in the assay with HCT-116 colon, 2.66 µM; in the assay on NCI-H23 lung, 10.4 µM; with UACC-62 melanoma, 13.3 µM. In addition, the GI50 with UO-31 renal is 2.18 µM; in the assay with CAKI-1 renal, 9.66 µM; with BT-549 breast it was 10.8 µM; in the assay with RPMI-8226 leukemia, 16.2 µM. Moreover, the TGI with CCRF-CEM leukemia is above 100 µM; with SNB-19 CNS it was 24.4 µM; with HCC-2998 colon, 25.7 µM; in the assay on HCT-116 colon, 8.27 µM; with NCI-H23 lung it was 44.8 µM; with UACC-62 melanoma, 29 µM. Also, the TGI is 5.96 µM in the assay with UO-31 renal, 24.8 µM in the assay with CAKI-1 renal, 24.3 µM with BT-549 breast and above 100 µM in the assay on RPMI-8226 leukemia.

For the compound `COc1cc(F)c(F)c(Nc2ccc(I)cc2F)c1NS(=O)(=O)C1(CC(O)CO)CC1` (configuration not stated), the GI50 in the assay on CCRF-CEM leukemia was 19.8 µM; with SNB-19 CNS, 11 µM; with HCC-2998 colon it was 10.8 µM; in the assay on HCT-116 colon it was 13.5 µM; in the assay on NCI-H23 lung it was 12.1 µM; in the assay on UACC-62 melanoma, 1.96 µM. Moreover, the GI50 with UO-31 renal was 10.4 µM; with CAKI-1 renal it was 10.2 µM; in the assay with BT-549 breast, 14.6 µM; with RPMI-8226 leukemia it was 16 µM. The TGI is above 72.3 µM in the assay on CCRF-CEM leukemia; 50.1 µM with SNB-19 CNS; 25.5 µM in the assay with HCC-2998 colon; 31.6 µM in the assay with HCT-116 colon; 36.4 µM in the assay on NCI-H23 lung; 9.81 µM in the assay with UACC-62 melanoma. The TGI is 40.2 µM in the assay with UO-31 renal, 54.4 µM in the assay on CAKI-1 renal, 35.2 µM with BT-549 breast and 54.6 µM with RPMI-8226 leukemia.

`COc1cc2c3c(c4ccc(O)cc4c2cc1OC)[C@@H](O)[C@@H]1CCCN1C3`: the TGI was found to be 0.0073 µM with CCRF-CEM leukemia; 0.00216 µM in the assay on SNB-19 CNS; 0.002 µM with HCC-2998 colon; 0.00188 µM with HCT-116 colon; 0.0558 µM in the assay with NCI-H23 lung; 0.0807 µM in the assay on UACC-62 melanoma. Besides, the TGI in the assay on UO-31 renal worked out at 0.0211 µM; in the assay with CAKI-1 renal, 0.00285 µM; in the assay with BT-549 breast, 0.027 µM; with RPMI-8226 leukemia, 0.00384 µM.

Regarding `O=C(/C=C/c1ccco1)Nc1ncc(Cc2cc(Cl)ccc2Cl)s1`, the GI50 in the assay with CCRF-CEM leukemia was 0.0385 µM; in the assay on SNB-19 CNS, 0.0585 µM; with HCC-2998 colon, 0.208 µM; in the assay on HCT-116 colon, 0.0509 µM; in the assay on NCI-H23 lung, 0.156 µM; in the assay on UACC-62 melanoma, 0.0487 µM. The GI50 is 0.162 µM with UO-31 renal, 0.05 µM with CAKI-1 renal, 0.189 µM with BT-549 breast and 0.0634 µM in the assay on RPMI-8226 leukemia. The TGI with CCRF-CEM leukemia, with SNB-19 CNS, with HCC-2998 colon, in the assay on HCT-116 colon, in the assay with NCI-H23 lung and in the assay on UACC-62 melanoma was above 100 µM each time. For the same compound, the TGI in the assay on UO-31 renal, with CAKI-1 renal and in the assay with RPMI-8226 leukemia was above 100 µM in each case.
